Source: US20260070895A1, “CRYSTALLINE FORMS” (QUIMATRYX, S.L., priority 2022, published 2026)
Entries after “also recorded” stand apart in the source; their conditions may differ.

How the values were obtained:
Type in all cases: physicochemical
[1] = Photostability at solid state (chemical purity by HPLC after illumination); details: for HPLC peak area, QTX125 RRT 1.00 / HPLC peak area, RRT 1.04 / HPLC peak area, RRT 1.12 / degradation (in words) / colour change of the solid material: solid-state; for degradation (in words): up to 171 hours
Procedure: (§1) The method for determining purity by HPLC—used throughout these examples—used the following parameters:
(§2) The photostability of novel crystalline forms of QTX125 was assessed at solid state and in solution. Where ‘forced illumination’ conditions were used, samples were illuminated at 12 Klux/hour and 2.8 UV W/m^2/hour. Samples were stored at a temperature of 30° C. Following incubation, the chemical purity of QTX125 was measured by HPLC.
(§3) The following index is provided to aid navigation of the data presented in Tables 3.1.1 to 3.3.6: • 3.1.x—Assessment of the photostability of QTX125 Form 2. • 3.2.x—Assessment of the photostability of amorphous QTX125. • 3.3.x—Assessment of the photostability of the QTX125 1:2 L-Lysine adduct. • 3.x.1—Samples (at solid state) stored in unsealed clear glass bottles, subject to forced illumination. • 3.x.2—Samples (at solid state) sealed under nitrogen in clear glass bottles, subject to forced illumination. • 3.x.3—Samples (at solid state) sealed under nitrogen in amber glass bottles, illuminated under ambient laboratory conditions • 3.x.4—Samples (at solid state) sealed under nitrogen in amber glass bottles, subject to forced illumination. • 3.x.5—Samples (in solution) sealed under nitrogen in amber glass bottles, illuminated under ambient laboratory conditions. • 3.x.6—Samples (in solution) sealed under nitrogen in amber glass bottles, subject to forced illumination.

[2] = Photostability in solution (THF and water), HPLC; details: for HPLC peak area, QTX125 RRT 1.00 / HPLC peak area, RRT 1.04 / HPLC peak area, RRT 1.12 / degradation (in words): in solution (THF and water), sealed under nitrogen in amber glass bottles; for degradation (in words): up to 171 hours
Procedure: as §1, §2, §3

[3] = Aqueous solubility at 37° C. (HPLC of filtered suspension); details: for peak solubility: at 1 hour
Procedure: The solubility of novel crystalline forms of QTX125 was assessed in the following aqueous solutions: (i) phosphate buffer, pH 3.5, 0.9% w/v sodium chloride; (ii) phosphate buffer, pH 6.5, 0.9% w/v sodium chloride; (iii) acetate buffer, pH 4.5, 0.9% w/v sodium chloride; (iv) citro-phosphate buffer, pH 4.5, 0.9% w/v sodium chloride; (v) sodium chloride, 0.9% w/v and (vi) deionised water. All assays were completed at 37° C.
In brief, 30 mg QTX125 was dispensed into vessels followed by 5 mL of the appropriate aqueous buffer. Mixtures were suspended by agitation and heated to 37° C. At various fixed intervals, an 0.4 mL aliquot of the suspension was removed, filtered and diluted for examination by HPLC. A single HPLC reference sample was used.

[4] = sealed under nitrogen in amber glass bottles, ambient laboratory conditions, 0 hours
[5] = sealed under nitrogen in amber glass bottles, ambient laboratory conditions, 3 hours
[6] = sealed under nitrogen in amber glass bottles, ambient laboratory conditions, 50 hours
[7] = sealed under nitrogen in amber glass bottles, ambient laboratory conditions, 171 hours
[8] = sealed under nitrogen in amber glass bottles, forced illumination, 171 hours
[9] = sealed under nitrogen in clear glass bottles, forced illumination
[10] = sealed under nitrogen in clear glass bottles, forced illumination, 0 hours
[11] = sealed under nitrogen in clear glass bottles, forced illumination, 3 hours
[12] = sealed under nitrogen in clear glass bottles, forced illumination, 50 hours
[13] = sealed under nitrogen in clear glass bottles, forced illumination, 171 hours
[14] = unsealed clear glass bottles, forced illumination
[15] = unsealed clear glass bottles, forced illumination, 0 hours
[16] = unsealed clear glass bottles, forced illumination, 3 hours
[17] = unsealed clear glass bottles, forced illumination, 50 hours
[18] = unsealed clear glass bottles, forced illumination, 171 hours
[19] = ambient laboratory conditions, 171 hours

## NCCCC[C@H](N)C(=O)O.NCCCC[C@H](N)C(=O)O.O=C(NO)c1ccc(CNC(=O)c2[nH]c(-c3ccc(O)cc3)cc2-c2ccoc2)cc1 [QTX125 1:2 L-Lysine adduct]
[1]; at solid state
  photostability as compared to amorphous QTX125: enhanced photostability; also recorded: improved photostability
[1]; [4]
  HPLC peak area, QTX125 RRT 1.00: 96.83%
  HPLC peak area, RRT 1.04: 1.15%
[1]; [5]
  HPLC peak area, QTX125 RRT 1.00: 96.82%
  HPLC peak area, RRT 1.04: 1.21%
[1]; [6]
  HPLC peak area, QTX125 RRT 1.00: 97.84%
  HPLC peak area, RRT 1.04: 0.58%
[1]; [7]
  HPLC peak area, QTX125 RRT 1.00: 97.29%
  HPLC peak area, RRT 1.04: 1.30%
  HPLC peak area, RRT 1.12: 0.35%
[1]; sealed under nitrogen in amber glass bottles, ambient laboratory conditions
  degradation (in words): little evidence of degradation
[1]; [8]
  HPLC peak area, QTX125 RRT 1.00: 96.27%
  HPLC peak area, RRT 1.04: 1.74%
  HPLC peak area, RRT 1.12: 0.59%
[1]; sealed under nitrogen in amber glass bottles, forced illumination
  degradation (in words): degrades slightly
[1]; [9]
  colour change of the solid material: A change in the colour of the solid material was not identified
  degradation (in words): degrades under forced illumination to two principal components
[1]; [10]
  HPLC peak area, QTX125 RRT 1.00: 96.83%
  HPLC peak area, RRT 1.04: 1.15%
[1]; [11]
  HPLC peak area, QTX125 RRT 1.00: 95.57%
  HPLC peak area, RRT 1.04: 1.90%
  HPLC peak area, RRT 1.12: 0.65%
[1]; [12]
  HPLC peak area, QTX125 RRT 1.00: 89.67%
  HPLC peak area, RRT 1.04: 5.79%
  HPLC peak area, RRT 1.12: 2.74%
[1]; [13]
  HPLC peak area, QTX125 RRT 1.00: 85.21%
  HPLC peak area, RRT 1.04: 9.04%
  HPLC peak area, RRT 1.12: 3.94%
[1]; [14]
  colour change of the solid material: A change in the colour of the solid material was not identified
  degradation (in words): degrades under forced illumination to two principal components
[1]; [15]
  HPLC peak area, QTX125 RRT 1.00: 96.83%
  HPLC peak area, RRT 1.04: 1.15%
[1]; [16]
  HPLC peak area, QTX125 RRT 1.00: 95.51%
  HPLC peak area, RRT 1.04: 1.98%
[1]; [17]
  HPLC peak area, QTX125 RRT 1.00: 88.96%
  HPLC peak area, RRT 1.04: 6.16%
  HPLC peak area, RRT 1.12: 3.08%
[1]; [18]
  HPLC peak area, QTX125 RRT 1.00: 84.14%
  HPLC peak area, RRT 1.04: 9.20%
  HPLC peak area, RRT 1.12: 4.38%
[2]; [19]
  HPLC peak area, QTX125 RRT 1.00: 93.18%
  HPLC peak area, RRT 1.04: 1.50%
  HPLC peak area, RRT 1.12: 0.97%
[2]; ambient laboratory conditions
  degradation (in words): degrades
[2]; forced illumination, 0 hours
  HPLC peak area, QTX125 RRT 1.00: 96.83%
  HPLC peak area, RRT 1.04: 1.15%
[2]; forced illumination, 3 hours
  HPLC peak area, QTX125 RRT 1.00: 98.01%
  HPLC peak area, RRT 1.04: 0.71%
  HPLC peak area, RRT 1.12: 0.33%
[2]; forced illumination, 50 hours
  HPLC peak area, QTX125 RRT 1.00: 84.17%
  HPLC peak area, RRT 1.04: 1.03%
  HPLC peak area, RRT 1.12: 2.14%
[2]; forced illumination, 171 hours
  HPLC peak area, QTX125 RRT 1.00: 89.96%
  HPLC peak area, RRT 1.04: 2.82%
  HPLC peak area, RRT 1.12: 1.17%
[2]; forced illumination
  degradation (in words): degrades
[2]; in solution, amber glass bottles, ambient laboratory conditions, 171 hours
  photostability as compared to amorphous QTX125 and Form 2: enhanced photostability
[2]; in solution, amber glass bottles, forced illumination, 171 hours
  photostability as compared to amorphous QTX125 or Form 2: enhanced photostability
[2]; stored in solution (conclusion)
  photostability as compared to both QTX125 Form 2 and amorphous QTX125: improved photostability
[3]
  solubility in a saline solution compared to other forms, including an amorphous form: more soluble
[3]; aqueous buffer, 37° C.
  PXRD analysis of the solid recovered at 24 hours: identified the precipitating entity as Form 2
[3]; buffer (i) phosphate buffer, pH 3.5, 0.9% w/v sodium chloride, 37° C., 1 hour
  concentration of QTX125 (solubility): 0.28 µg/mL
[3]; buffer (i) phosphate buffer, pH 3.5, 0.9% w/v sodium chloride, 37° C., 4 hours
  concentration of QTX125 (solubility): 0.33 µg/mL
[3]; buffer (i) phosphate buffer, pH 3.5, 0.9% w/v sodium chloride, 37° C., 7 hours
  concentration of QTX125 (solubility): 0.23 µg/mL
[3]; buffer (i) phosphate buffer, pH 3.5, 0.9% w/v sodium chloride, 37° C., 24 hours
  concentration of QTX125 (solubility): 0.34 µg/mL
[3]; buffer (ii) phosphate buffer, pH 6.5, 0.9% w/v sodium chloride, 37° C., 1 hour
  concentration of QTX125 (solubility): 0.32 µg/mL
[3]; buffer (ii) phosphate buffer, pH 6.5, 0.9% w/v sodium chloride, 37° C., 4 hours
  concentration of QTX125 (solubility): 0.24 µg/mL
[3]; buffer (ii) phosphate buffer, pH 6.5, 0.9% w/v sodium chloride, 37° C., 7 hours
  concentration of QTX125 (solubility): 0.39 µg/mL
[3]; buffer (ii) phosphate buffer, pH 6.5, 0.9% w/v sodium chloride, 37° C., 24 hours
  concentration of QTX125 (solubility): 0.28 µg/mL
[3]; buffer (iii) acetate buffer, pH 4.5, 0.9% w/v sodium chloride, 37° C., 1 hour
  concentration of QTX125 (solubility): 0.25 µg/mL
[3]; buffer (iii) acetate buffer, pH 4.5, 0.9% w/v sodium chloride, 37° C., 4 hours
  concentration of QTX125 (solubility): 0.35 µg/mL
[3]; buffer (iii) acetate buffer, pH 4.5, 0.9% w/v sodium chloride, 37° C., 7 hours
  concentration of QTX125 (solubility): 0.35 µg/mL
[3]; buffer (iii) acetate buffer, pH 4.5, 0.9% w/v sodium chloride, 37° C., 24 hours
  concentration of QTX125 (solubility): 0.33 µg/mL
[3]; buffer (iv) citro-phosphate buffer, pH 4.5, 0.9% w/v sodium chloride, 37° C., 1 hour
  concentration of QTX125 (solubility): 0.33 µg/mL
[3]; buffer (iv) citro-phosphate buffer, pH 4.5, 0.9% w/v sodium chloride, 37° C., 4 hours
  concentration of QTX125 (solubility): 0.29 µg/mL
[3]; buffer (iv) citro-phosphate buffer, pH 4.5, 0.9% w/v sodium chloride, 37° C., 7 hours
  concentration of QTX125 (solubility): 0.37 µg/mL
[3]; buffer (iv) citro-phosphate buffer, pH 4.5, 0.9% w/v sodium chloride, 37° C., 24 hours
  concentration of QTX125 (solubility): 0.27 µg/mL
[3]; buffer (v) sodium chloride, 0.9% w/v, 37° C., 1 hour
  concentration of QTX125 (solubility): 29.81 µg/mL
[3]; buffer (v) sodium chloride, 0.9% w/v, 37° C., 4 hours
  concentration of QTX125 (solubility): 16.91 µg/mL
[3]; buffer (v) sodium chloride, 0.9% w/v, 37° C., 7 hours
  concentration of QTX125 (solubility): 8.51 µg/mL
[3]; buffer (v) sodium chloride, 0.9% w/v, 37° C., 24 hours
  concentration of QTX125 (solubility): 4.52 µg/mL
[3]; buffer (vi) deionised water, 37° C., 1 hour
  concentration of QTX125 (solubility): 24.5 µg/mL
[3]; buffer (vi) deionised water, 37° C., 4 hours
  concentration of QTX125 (solubility): 16.22 µg/mL
[3]; buffer (vi) deionised water, 37° C., 7 hours
  concentration of QTX125 (solubility): 10.14 µg/mL
[3]; buffer (vi) deionised water, 37° C., 24 hours
  concentration of QTX125 (solubility): 7.76 µg/mL
[3]; buffers (i) to (iv), 37° C.
  solubility (in words): very low
[3]; deionised water (buffer vi), 37° C., listed as 1:2 L-Lysine adduct
  peak solubility: 24.5 µg/mL
[3]; deionised water (buffer vi), 37° C., listed as adduct
  peak solubility: 24.5 µg/mL
[3]; sodium chloride 0.9% w/v (buffer v), 37° C., listed as 1:2 L-Lysine adduct
  peak solubility: 29.81 µg/mL
[3]; sodium chloride 0.9% w/v (buffer v), 37° C., listed as adduct
  peak solubility: 29.81 µg/mL
